Columns and labels:
cells = conditions: Influenza A virus, MDCK
[1] = Cytotoxicity against MDCK cells assessed as cell death after 2 days by MTT assay; format: toxicity, cell-based, Canis lupus familiaris; conditions: dog
[2] = Selectivity index, ratio of CC50 for MDCK cells to IC50 for Influenza A virus H5 subtype (A/Thailand/Kan353/2004(H5N1)) pseudovirus infected in MDCK cells co-infected with HA/HIV; format: functional
[3] = (§1) Binding affinity to influenza A virus A/Vietnam/1194/2004(H5N1) Hemagglutinin 2 subunit by surface plasmon resonance analysis
[4] = system: Influenza A virus (A/Vietnam/1194/2004(H5N1)); test: as §1
[5] = (§2) Binding affinity to Influenza A virus A/Vietnam/1194/2004(H5N1) Hemagglutinin by surface plasmon resonance analysis
[6] = system: Influenza A virus (A/Vietnam/1194/2004(H5N1)); test: as §2

Row | SMILES | IC50 (cells) [µM] | CC50 at 48 h [1] [µM] | Ratio CC50/IC50 [2] | Kd [3] [µM] | Activity [4] | Kd [5] [µM] | Activity [6]
1 | CC1(C)CC[C@]2(C(=O)O)CC[C@]3(C)C(=CC[C@@H]4[C@@]5(C)CC[C@H](O)C(C)(C)[C@@H]5CC[C@]43C)[C@@H]2C1 [OLEANOLIC_ACID] | > 50 | 23.1 | <1 |  |  |  | 
2 | C[C@@H]1CC[C@@]2(OC1)O[C@H]1C[C@H]3[C@@H]4C[C@H](O)[C@H]5C[C@@H](O[C@@H]6O[C@H](CO)[C@@H](O[C@@H]7O[C@@H](C)[C@H](O)[C@@H](O)[C@H]7O)[C@H](O)[C@H]6O[C@@H]6O[C@@H](C)[C@H](O)[C@@H](O)[C@H]6O)CC[C@]5(C)[C@H]4CC[C@]3(C)[C@H]1[C@@H]2C | 7.92 | 18.3 | 2.3 |  |  |  | 
3 | COC(=O)[C@]12CCC(C)(C)C[C@H]1C1=CC[C@@H]3[C@@]4(C)CC[C@@H](O[C@@H]5O[C@H](CO)[C@@H](O[C@@H]6O[C@@H](C)[C@H](O)[C@@H](O)[C@H]6O)[C@H](O)[C@H]5O[C@@H]5O[C@@H](C)[C@H](O)[C@@H](O)[C@H]5O)C(C)(C)[C@@H]4CC[C@@]3(C)[C@]1(C)CC2 | 5.26 | > 200 | >38 |  |  |  | 
4 | COC(=O)[C@]12CCC(C)(C)C[C@H]1C1=CC[C@@H]3[C@@]4(C)CC[C@H](O[C@@H]5O[C@H](CO)[C@@H](O[C@@H]6O[C@@H](C)[C@H](O)[C@@H](O)[C@H]6O)[C@H](O)[C@H]5O[C@@H]5O[C@@H](C)[C@H](O)[C@@H](O)[C@H]5O)C(C)(C)[C@@H]4CC[C@@]3(C)[C@]1(C)CC2 | 4.74 |  | 3.6 |  |  |  | 
5 | C[C@@H]1O[C@@H](O[C@H]2[C@H](O[C@H]3CC[C@]4(C)[C@H]5CC=C6[C@@H]7CC(C)(C)CC[C@]7(C(=O)OCc7ccccc7)CC[C@@]6(C)[C@]5(C)CC[C@H]4C3(C)C)O[C@H](CO)[C@@H](O[C@@H]3O[C@@H](C)[C@H](O)[C@@H](O)[C@H]3O)[C@@H]2O)[C@H](O)[C@H](O)[C@H]1O | 5.62 | 75.4 | 13.4 |  |  |  | 
6 | C[C@@H]1O[C@@H](O[C@H]2[C@H](O[C@H]3CC[C@]4(C)[C@H]5CC=C6[C@@H]7CC(C)(C)CC[C@]7(C=O)CC[C@@]6(C)[C@]5(C)CC[C@H]4C3(C)C)O[C@H](CO)[C@@H](O[C@@H]3O[C@@H](C)[C@H](O)[C@@H](O)[C@H]3O)[C@@H]2O)[C@H](O)[C@H](O)[C@H]1O | 8.58 | 21.1 | 2.5 |  |  |  | 
7 | COC(=O)[C@@]1(C)CC[C@]2(C)CC[C@]3(C)C(=CC(=O)[C@@H]4[C@@]5(C)CC[C@H](O[C@@H]6O[C@H](CO)[C@@H](O[C@@H]7O[C@@H](C)[C@H](O)[C@@H](O)[C@H]7O)[C@H](O)[C@H]6O[C@@H]6O[C@@H](C)[C@H](O)[C@@H](O)[C@H]6O)C(C)(C)[C@@H]5CC[C@]43C)[C@@H]2C1 | 4.1 | 33.8 | 8.3 |  |  |  | 
8 | COC(=O)[C@]12CCC(C)(C)C[C@H]1C1=CC(=O)[C@@H]3[C@@]4(C)CC[C@H](O[C@@H]5O[C@H](CO)[C@@H](O[C@@H]6O[C@@H](C)[C@H](O)[C@@H](O)[C@H]6O)[C@H](O)[C@H]5O[C@@H]5O[C@@H](C)[C@H](O)[C@@H](O)[C@H]5O)C(C)(C)[C@@H]4CC[C@@]3(C)[C@]1(C)CC2 | 5.8 | 17.9 | 3.1 |  |  |  | 
9 | C[C@@H]1O[C@@H](O[C@H]2[C@H](O[C@H]3CC[C@]4(C)[C@H]5CC=C6[C@@H]7CC(C)(C)CC[C@]7(C(=O)O)CC[C@@]6(C)[C@]5(C)CC[C@H]4C3(C)C)O[C@H](CO)[C@@H](O[C@@H]3O[C@@H](C)[C@H](O)[C@@H](O)[C@H]3O)[C@@H]2O)[C@H](O)[C@H](O)[C@H]1O | 9.39 | 18.7 | 2 |  |  |  | 
10 | C[C@@H]1O[C@@H](O[C@H]2[C@H](O[C@H]3CC[C@]4(C)[C@H]5CC=C6[C@@H]7CC(C)(C)CC[C@]7(C(=O)OC7CCCC7)CC[C@@]6(C)[C@]5(C)CC[C@H]4C3(C)C)O[C@H](CO)[C@@H](O[C@@H]3O[C@@H](C)[C@H](O)[C@@H](O)[C@H]3O)[C@@H]2O)[C@H](O)[C@H](O)[C@H]1O | 4.8 | 58.2 | 12.1 |  |  |  | 
11 | O=C(NCCN1CCCCC1)c1cc(F)cc(C(F)(F)F)c1 |  |  | 332.3 |  |  |  | 
12 | COC[C@]12CCC(C)(C)C[C@H]1C1=CC[C@@H]3[C@@]4(C)CC[C@H](O[C@@H]5O[C@H](CO)[C@@H](O[C@@H]6O[C@@H](C)[C@H](O)[C@@H](O)[C@H]6O)[C@H](O)[C@H]5O[C@@H]5O[C@@H](C)[C@H](O)[C@@H](O)[C@H]5O)C(C)(C)[C@@H]4CC[C@@]3(C)[C@]1(C)CC2 | > 20 | 16.8 | <1 |  |  |  | 
13 | CCCCCOC(=O)[C@]12CCC(C)(C)C[C@H]1C1=CC[C@@H]3[C@@]4(C)CC[C@H](O[C@@H]5O[C@H](CO)[C@@H](O[C@@H]6O[C@@H](C)[C@H](O)[C@@H](O)[C@H]6O)[C@H](O)[C@H]5O[C@@H]5O[C@@H](C)[C@H](O)[C@@H](O)[C@H]5O)C(C)(C)[C@@H]4CC[C@@]3(C)[C@]1(C)CC2 | 6.52 | 45.2 | 6.9 |  |  |  | 
14 | CCOC(=O)[C@]12CCC(C)(C)C[C@H]1C1=CC[C@@H]3[C@@]4(C)CC[C@H](O[C@@H]5O[C@H](CO)[C@@H](O[C@@H]6O[C@@H](C)[C@H](O)[C@@H](O)[C@H]6O)[C@H](O)[C@H]5O[C@@H]5O[C@@H](C)[C@H](O)[C@@H](O)[C@H]5O)C(C)(C)[C@@H]4CC[C@@]3(C)[C@]1(C)CC2 | 5.2 | 37.4 | 7.2 |  |  |  | 
15 | CCN(CC)C(=O)[C@]12CCC(C)(C)C[C@H]1C1=CC[C@@H]3[C@@]4(C)CC[C@H](O[C@@H]5O[C@H](CO)[C@@H](O[C@@H]6O[C@@H](C)[C@H](O)[C@@H](O)[C@H]6O)[C@H](O)[C@H]5O[C@@H]5O[C@@H](C)[C@H](O)[C@@H](O)[C@H]5O)C(C)(C)[C@@H]4CC[C@@]3(C)[C@]1(C)CC2 | 2.48 | 69 | 27.8 |  |  |  | 
16 | C[C@@H]1O[C@@H](O[C@H]2[C@H](O[C@H]3CC[C@]4(C)[C@H]5CC=C6[C@@H]7CC(C)(C)CC[C@]7(C(=O)N(C)C)CC[C@@]6(C)[C@]5(C)CC[C@H]4C3(C)C)O[C@H](CO)[C@@H](O[C@@H]3O[C@@H](C)[C@H](O)[C@@H](O)[C@H]3O)[C@@H]2O)[C@H](O)[C@H](O)[C@H]1O | 2.36 | 70 | 29.7 | 0.0112 | Dose-dependent effect | 0.00446 | Dose-dependent effect
